# Read-outs that look alike come from different tables or passages of the source.
# Experiments:
# [1] = system: carbapenem-resistant Acinetobacter baumannii-882; assay: MIC against clinical isolate; assay type: cell-based
# Text: (§1) The Specific Steps are as Follows:
# [2] = system: methicillin-resistant Staphylococcus aureus-171; assay: MIC against clinical isolate; assay type: cell-based
# Text: as §1
# [3] = system: methicillin-resistant Staphylococcus aureus-206; assay: MIC against clinical isolate; assay type: cell-based
# Text: as §1
# [4] = system: methicillin-resistant Staphylococcus aureus-222; assay: MIC against clinical isolate; assay type: cell-based; details: MRSA / MRSE
# Text: as §1
# [5] = system: methicillin-resistant Staphylococcus aureus-575; assay: MIC against clinical isolate; assay type: cell-based
# Text: as §1
# [6] = system: methicillin-resistant Staphylococcus aureus-596; assay: MIC against clinical isolate; assay type: cell-based
# Text: as §1
# [7] = system: multidrug-resistant Klebsiella pneumoniae-893; assay: MIC against clinical isolate; assay type: cell-based; details: clinical isolate MDR-KP-893
# Text: as §1
# [8] = system: multidrug-resistant Pseudomonas aeruginosa-126; assay: MIC against clinical isolate; assay type: cell-based
# Text: as §1
# [9] = system: vancomycin-resistant Enterococcus-80; assay: MIC against clinical isolate; assay type: cell-based
# Text: as §1
# [10] = system: five clinical MRSA isolates, including MRSA-171, MRSA-575, MRSA-206, MRSA-222, and MRSA-596; assay: MIC, five clinical MRSA isolates as summarised in text; assay type: cell-based, Staphylococcus aureus; details: MRSA-171, MRSA-575, MRSA-206, MRSA-222, MRSA-596
# Text: as §1
# physchem = details: thermodynamic from solid
# [11] = system: Methicillin-resistant S. aureus ATCC 33591; assay: MIC by broth microdilution; details: Staphylococcus aureus, ATCC33591|MRSA, 24 h, read-out: Minimum inhibitory concentration MRSA^b
# [12] = system: Methicillin-resistant S. aureus ATCC 43300; assay: MIC by broth microdilution; details: Staphylococcus aureus, ATCC43300|MRSA, 24 h, read-out: Minimum inhibitory concentration MRSA^c
# S. aureus ATCC 29213 = assay: MIC by broth microdilution; details: Staphylococcus aureus, ATCC29213, 24 h, read-out: Minimum inhibitory concentration S.a.^d
# [13] = system: Methicillin-resistant S. epidermidis ATCC 51625; assay: MIC by broth microdilution; details: Staphylococcus epidermidis, ATCC51625|MRSE, 24 h, read-out: Minimum inhibitory concentration MRSE^e
# A. baumannii ATCC 19606 = assay: MIC by broth microdilution; details: Acinetobacter baumannii, ATCC19606, 24 h, read-out: Minimum inhibitory concentration A.b.^f
# S. enterica ATCC14028 = assay: MIC by broth microdilution; details: Salmonella enterica, ATCC14028, 24 h, read-out: Minimum inhibitory concentration S.e.^g
# E. coli ATCC 25922 = assay: MIC by broth microdilution; details: Escherichia coli, ATCC25922, 24 h, read-out: Minimum inhibitory concentration E.c.^h
# E. coli CMCC 44103 = assay: MIC by broth microdilution; details: Escherichia coli, CMCC44103, 24 h, read-out: Minimum inhibitory concentration E.c.^i
# [14] = Cell Counting Kit-8 cytotoxicity; details: human, HepG2 cells
# HEK293 cells [15] = assay: Cell Counting Kit-8 cytotoxicity; details: read-out: CC50 HEK293 Cells; CCK-8, 24 hours incubation
# A549 cells [16] = assay: Cell Counting Kit-8 cytotoxicity; details: read-out: CC50 A549 Cells; CCK-8, 24 hours incubation
# [17] = system: Gram-positive and Gram-negative bacteria; assay: MIC, panel of TABLE 1 strains as summarised in text; details: comparison of MIC with positive control drugs
# [18] = system: HepG2 cells, HEK293 cells and A549 cells; assay: Cell Counting Kit-8 cytotoxicity, all tested cells as summarised in text; details: at a concentration of 100 μM
# HepG2 cells [19] = details: human, 24 h
# HEK293 cells [20] = details: human, 24 h
# A549 cells [21] = details: human, 24 h
# HepG2 cells [22] = assay: Cell Counting Kit-8 cytotoxicity; details: read-out: CC50 HepG2 Cells; CCK-8, 24 hours incubation
# [23] = Cell Counting Kit-8 cytotoxicity; details: human
# [24] = Solubility experiment (equilibrium solubility); details: thermodynamic from solid
SMILES,Antibacterial activity (MIC) MDR-KP^i [7] [µg/mL],solubility (physchem) [µM],MIC [11] [µg/mL],MIC [12] [µg/mL],MIC (S. aureus ATCC 29213) [µg/mL],MIC [13] [µg/mL],MIC (A. baumannii ATCC 19606) [µg/mL],MIC (S. enterica ATCC14028) [µg/mL],MIC (E. coli ATCC 25922) [µg/mL],MIC (E. coli CMCC 44103) [µg/mL],CC50 (A549 cells [16]) [µM],antibacterial activity compared to valnemulin and retapamulin (in words) [17],toxicity to the tested cells (in words) [18],further results
"C=C[C@]1(C)C[C@@H](OC(=O)CSc2nc3cc[n+](Cc4ccc(C)cc4)cc3s2)[C@]2(C)[C@H](C)CC[C@]3(CCC(=O)[C@H]32)[C@@H](C)[C@@H]1O [Compound I-9, 5-(4-methylbenzyl)-2-((2-(((3aR,4R,5R,7S,8S,9R,9aS,12R)-8-hydroxy-4,7,9,12-tetramethyl-3-oxo-7-vinyldecahydro-4,9a-propancyclopenta[8]cyclo-5-yl)oxy)-2-oxoethyl)thio)thiazolo[5,4-c]pyridin-5-ium]",2,812,0.25,0.25,0.125,0.25,0.5,0.25,0.25,0.125,> 100,most advantageous antibacterial activity,low toxicity,"MIC ([1]; clinical isolate CR-AB-882, read-out: Antibacterial activity (MIC) CR-AB^j): 4 µg/mL; MIC ([2]; clinical isolate MRSA-171, read-out: Antibacterial activity (MIC) MRSA^b): 8 µg/mL; MIC ([3]; clinical isolate MRSA-206, read-out: Antibacterial activity (MIC) MRSA^d): 2 µg/mL; MIC ([4]; clinical isolate, footnote e: MRSA-222, read-out: Antibacterial activity (MIC) MRSE^e): 4 µg/mL; MIC ([5]; clinical isolate MRSA-575, read-out: Antibacterial activity (MIC) MRSA^c): 4 µg/mL; MIC ([6]; clinical isolate MRSA-596, read-out: Antibacterial activity (MIC) MRSA^f): 8 µg/mL; MIC ([8]; clinical isolate MDR-PA-126, read-out: Antibacterial activity (MIC) MDR-PA^h): 8 µg/mL; MIC ([9]; clinical isolate VRE-80, read-out: Antibacterial activity (MIC) VRE^g): 8 µg/mL; MIC, range over five clinical MRSA isolates [10]: 2 to 8 µg/mL; CC50 at 24 h [14]: 66.4 µM; CC50 (HEK293 cells [15]): 82.1 µM"
"C=C[C@]1(C)C[C@@H](OC(=O)CSC(C)(C)CNC(=O)[C@H](N)C(C)C)[C@]2(C)[C@H](C)CC[C@]3(CCC(=O)[C@H]32)[C@@H](C)[C@@H]1O [Valnemulin, valnemulin, reference compound]",–,386,–,–,4,–,2,64,16,64,–,–,–,CC50 (HepG2 cells [19]): 77.3 µM; CC50 (HEK293 cells [20]): 65.4 µM; CC50 (A549 cells [21]): 53.7 µM
"C=C[C@]1(C)C[C@@H](OC(=O)CSc2nc3cc[n+](Cc4ccc(C#N)cc4)cc3s2)[C@]2(C)[C@H](C)CC[C@]3(CCC(=O)[C@H]32)[C@@H](C)[C@@H]1O [Compound I-8, 5-(4-cyanobenzyl)-2-((2-(((3aR,4R,5R,7S,8S,9R,9aS,12R)-8-hydroxy-4,7,9,12-tetramethyl-3-oxo-7-vinyldecahydro-4,9a-propancyclopenta[8]cyclo-5-yl)oxy)-2-oxoethyl)thio)thiazolo[5,4-c]pyridin-5-ium]",16,–,1,1,0.5,2,1,2,1,2,> 100,good antibacterial activity,low toxicity,"MIC ([1]; read-out: Antibacterial activity (MIC) CR-AB^j): 64 µg/mL; MIC ([2]; MRSA, read-out: Antibacterial activity (MIC) MRSA^b): 16 µg/mL; MIC ([3]; MRSA, read-out: Antibacterial activity (MIC) MRSA^d): 64 µg/mL; MIC ([4]; read-out: Antibacterial activity (MIC) MRSE^e): 16 µg/mL; MIC ([5]; MRSA, read-out: Antibacterial activity (MIC) MRSA^c): 32 µg/mL; MIC ([6]; MRSA, read-out: Antibacterial activity (MIC) MRSA^f): 8 µg/mL; MIC ([8]; read-out: Antibacterial activity (MIC) MDR-PA^h): 32 µg/mL; MIC ([9]; VRE, read-out: Antibacterial activity (MIC) VRE^g): 16 µg/mL; CC50 (HepG2 cells [22]): 78.5 µM; CC50 at 24 h [23]: 79.2 µM"
"C=C[C@]1(C)C[C@@H](OC(=O)CSc2nc3cc[n+](Cc4ccc([N+](=O)[O-])cc4)cc3s2)[C@]2(C)[C@H](C)CC[C@]3(CCC(=O)[C@H]32)[C@@H](C)[C@@H]1O [Compound I-6, 5-(4-nitrobenzyl)-2-((2-(((3aR,4R,5R,7S,8S,9R,9aS,12R)-8-hydroxy-4,7,9,12-tetramethyl-3-oxo-7-vinyldecahydro-4,9a-propancyclopenta[8]cyclo-5-yl)oxy)-2-oxoethyl)thio)thiazolo[5,4-c]pyridin-5-ium]",–,–,16,4,32,16,16,16,8,32,–,–,–,solubility [24]: 887 µM

# Source: patent US12304917B1, “Pleuromutilin derivative containing a thiazolo[5,4-c]pyridine side chain, and a preparation method and application thereof” (SHAANXI UNIVERSITY OF SCIENCE AND TECHNOLOGY, priority 2024, dated 2025)
